{"source": "paper PMC9139979", "about": "“Features of ZED1227: The First-In-Class Tissue Transglutaminase Inhibitor Undergoing Clinical Evaluation for the Treatment of Celiac Disease” (Cells, 2022)", "key": {"hFXIII-A2": {"target": "T1, hFXIII-A2 (Homo sapiens, UniProt P00488)", "T1 construct": "purchased Zedira T027", "T1 sequence (P00488 39-732 limits assumed)": "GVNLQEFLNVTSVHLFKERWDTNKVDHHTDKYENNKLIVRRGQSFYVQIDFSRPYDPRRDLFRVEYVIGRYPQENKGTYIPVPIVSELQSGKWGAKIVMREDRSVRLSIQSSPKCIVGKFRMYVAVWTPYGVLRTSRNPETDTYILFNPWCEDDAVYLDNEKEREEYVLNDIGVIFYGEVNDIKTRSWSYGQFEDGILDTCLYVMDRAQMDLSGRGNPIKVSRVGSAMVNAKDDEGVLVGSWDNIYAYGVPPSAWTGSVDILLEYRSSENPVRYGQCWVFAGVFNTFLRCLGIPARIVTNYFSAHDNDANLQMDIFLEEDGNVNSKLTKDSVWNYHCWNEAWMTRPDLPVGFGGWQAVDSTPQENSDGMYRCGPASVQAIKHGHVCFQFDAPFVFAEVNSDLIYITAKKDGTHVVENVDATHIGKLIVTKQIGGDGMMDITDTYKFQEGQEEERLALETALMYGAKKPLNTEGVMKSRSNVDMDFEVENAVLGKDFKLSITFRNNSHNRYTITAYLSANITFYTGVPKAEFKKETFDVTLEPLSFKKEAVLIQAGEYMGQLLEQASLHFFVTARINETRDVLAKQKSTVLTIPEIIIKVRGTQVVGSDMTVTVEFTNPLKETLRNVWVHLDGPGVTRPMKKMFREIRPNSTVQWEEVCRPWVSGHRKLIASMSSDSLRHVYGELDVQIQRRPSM", "test": "Fluorescent transamidation assay (DCC-assay), hFXIII-A2", "type": "biochemical"}, "hTG1": {"target": "T2, hTG1 (Homo sapiens, UniProt P22735)", "T2 construct": "purchased Zedira T035", "T2 sequence (P22735 1-817)": "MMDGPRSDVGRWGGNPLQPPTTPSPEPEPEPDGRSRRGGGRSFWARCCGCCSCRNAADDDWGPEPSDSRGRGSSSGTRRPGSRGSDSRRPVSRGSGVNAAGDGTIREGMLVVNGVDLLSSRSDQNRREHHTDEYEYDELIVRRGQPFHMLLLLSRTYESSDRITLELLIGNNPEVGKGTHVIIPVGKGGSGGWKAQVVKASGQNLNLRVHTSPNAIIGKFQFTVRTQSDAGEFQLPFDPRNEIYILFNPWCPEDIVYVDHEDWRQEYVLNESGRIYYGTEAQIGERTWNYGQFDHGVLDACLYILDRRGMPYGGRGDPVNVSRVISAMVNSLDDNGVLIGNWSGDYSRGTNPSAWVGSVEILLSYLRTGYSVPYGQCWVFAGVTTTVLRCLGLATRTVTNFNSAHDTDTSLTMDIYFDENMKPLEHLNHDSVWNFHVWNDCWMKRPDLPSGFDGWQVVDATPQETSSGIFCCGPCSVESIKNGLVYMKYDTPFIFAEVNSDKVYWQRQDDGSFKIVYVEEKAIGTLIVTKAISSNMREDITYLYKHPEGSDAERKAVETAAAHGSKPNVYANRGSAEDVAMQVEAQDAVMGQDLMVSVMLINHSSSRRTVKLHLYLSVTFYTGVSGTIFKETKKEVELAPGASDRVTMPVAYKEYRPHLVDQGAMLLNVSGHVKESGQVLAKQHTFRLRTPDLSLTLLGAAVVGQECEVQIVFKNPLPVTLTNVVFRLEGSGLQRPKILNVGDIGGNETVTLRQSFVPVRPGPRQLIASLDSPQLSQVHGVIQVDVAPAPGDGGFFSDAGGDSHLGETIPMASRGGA", "test": "Fluorescent transamidation assay (DCC-assay), hTG1", "type": "biochemical", "procedure": "Inhibition data were determined using the fluorescent transamidation assay (dansylcadaverine incorporation into glutamine-donor substrate N,N-dimethyl casein, DCC-assay). Briefly, to 15 μL of ZED1227 solution (dissolved and serial diluted in 2% (v/v) DMSO/assay buffer), 285 μL assay buffer [47.5 mM tris(hydroxymethyl)aminomethane, 9.5 mM CaCl2, 9.5 mM glutathione, 2.4% (v/v) glycerol, 190 mM NaCl, pH 8.0] containing dansylcadaverine (15.9 μM), N,N-dimethyl casein (3.8 μM) and the indicated recombinant transglutaminase enzyme [0.95 μg/mL hTG1 (T035), 0.81 μg/mL hTG2 (T022), 0.83 μg/mL hTG6 (T021), all from Zedira] were added, mixed and the kinetic measurement started immediately. […]\nFluorescence emission was continuously monitored for 30 min at λem = 500 nm (λex = 330 nm) and 37 °C using a CLARIOstar fluorescence plate reader (BMG Labtech, Ortenberg, Germany). […] The respective IC50 (and IC90 for TG2) values were calculated by non-linear regression using the MARS software package (BMG Labtech). […]\nTo facilitate comparability during lead structure optimization and to roughly estimate concentrations needed at the target site, the apparent IC50 values (calculated by four-parameter non-linear fit by MARS software) for irreversible inhibitors are more instructive and are therefore reported. […]"}}, "data": [{"smiles": "CCC(CC)CNC(=O)Cn1cccc(NC(=O)[C@H](CC/C=C/C(=O)OC)NC(=O)c2cncn2C)c1=O", "note": "[ZED1227, (S,E)-Methyl 7-(1-(2-(2-ethylbutylamino)-2-oxoethyl)-2-oxo-1,2-dihydropyridin-3-ylamino)-6-(1-methyl-1H-imidazole-5-carboxamido)-7-oxohept-2-enoate]", "values": [{"measurement": "Selectivity hFXIII-A2 versus hTG2", "setting": "hFXIII-A2; ratio of app. IC50 values", "result": ">900", "unit": "fold"}, {"measurement": "IC50", "setting": "hFXIII-A2; recombinant, thrombin activated, transamidation assay, read-out: App. IC50 hFXIII-A2", "result": "> 50", "unit": "µM"}, {"measurement": "Selectivity hTG1 versus hTG2", "setting": "hTG1; ratio of app. IC50 values", "result": 469, "unit": "fold"}, {"measurement": "IC50", "setting": "hTG1; recombinant, transamidation assay, read-out: App. IC50 hTG1", "result": 24.9, "unit": "µM"}]}]}
